Results reported in patent US8691811B2, “Quinazolinone linked pyrrolo[2,1-c][1,4]benzodiazepine hybrids as potential anticancer agents and process for the preparation thereof” (Council of Scientific & Industrial Research, priority 2008, dated 2014).

Key:
Format in all cases: cell-based, human
SNB-19 = assay: NCI cytotoxicity (SRB, 48 h), SNB-19; conditions: SNB-19, CNS
Description: (§1) The C8-linked quinazolinone-PBD hybrid (5d) has been tested against sixty human tumour cell lines derived from nine cancer types (leukemia, non-small cell lung cancer, colon cancer, CNS cancer, melanoma, ovarian cancer, renal cancer, prostate cancer and breast cancer) as per NCI protocol. For each compound, dose response curves for individual cell lines have been measured at a minimum of five concentrations at 10 fold dilutions. A protocol of 48 h continuous drug exposure has been used, and a sulforhodamine B (SRB) protein assay was used to estimate cell viability or growth. The concentration for 50% cell growth inhibition (GI50), total cell growth inhibition (TGI, 0% growth) and 50% cell death (LC50, […]) compared with the control has been calculated (Table-1). Compound 5d has been evaluated for their in vitro cytotoxicity in sixty cell lines from nine human cancer types of lung (Hop-62, NCI-H226, NCI-H522), leukemia (K-562, SR), colon (HCT-116, HCT-15, HCC-2998), CNS(SF-539), melanoma (SK-MEL-5, UACC-62, M14), ovarian (IGROV1), renal (A498), prostate (PC3) breast (BT-549, MDA-MB-435, HS578T) origin. The results are expressed as percent of cell growth determined relative to that of untreated control cells (Table 2). The representative compound 5d has shown significant cytotoxicity against some cancer cell lines.

K-562 = assay: NCI cytotoxicity (SRB, 48 h), K-562; conditions: K-562, leukemia
Description: as §1

LOX IMVI = assay: NCI cytotoxicity (SRB, 48 h), LOX IMVI; conditions: melanoma
Description: as §1

EKVX = assay: NCI cytotoxicity (SRB, 48 h), EKVX; conditions: non-small cell lung
Description: as §1

PC-3 = assay: NCI cytotoxicity (SRB, 48 h), PC-3; conditions: PC-3, prostate
Description: as §1

UO-31 = assay: NCI cytotoxicity (SRB, 48 h), UO-31; conditions: UO-31, renal
Description: as §1

HCT-15 = assay: NCI cytotoxicity (SRB, 48 h), HCT-15; conditions: HCT-15, colon
Description: as §1

ACHN = assay: NCI cytotoxicity (SRB, 48 h), ACHN; conditions: renal
Description: as §1

RXF 393 = assay: NCI cytotoxicity (SRB, 48 h), RXF 393; conditions: RXF 393, renal
Description: as §1

SR = assay: NCI cytotoxicity (SRB, 48 h), SR; conditions: leukemia
Description: as §1

TK-10 = assay: NCI cytotoxicity (SRB, 48 h), TK-10; conditions: TK-10, renal
Description: as §1

Melanoma cell lines = assay: NCI cytotoxicity (SRB, 48 h), melanoma panel; conditions: Melanoma panel average
Description: as §1

HL-60(TB) = assay: NCI cytotoxicity (SRB, 48 h), HL-60(TB); conditions: leukemia
Description: as §1

NCI/ADR-RES = assay: NCI cytotoxicity (SRB, 48 h), NCI/ADR-RES; conditions: breast
Description: as §1

Renal cancer cell lines = assay: NCI cytotoxicity (SRB, 48 h), renal panel; conditions: Renal panel average
Description: as §1

SNB-75 = assay: NCI cytotoxicity (SRB, 48 h), SNB-75; conditions: SNB-75, CNS
Description: as §1

CNS cancer cell lines = assay: NCI cytotoxicity (SRB, 48 h), CNS panel; conditions: CNS panel average
Description: as §1

OVCAR-3 = assay: NCI cytotoxicity (SRB, 48 h), OVCAR-3; conditions: OVCAR-3, ovarian
Description: as §1

OVCAR-4 = assay: NCI cytotoxicity (SRB, 48 h), OVCAR-4; conditions: OVCAR-4, ovarian
Description: as §1

CAKI-1 = assay: NCI cytotoxicity (SRB, 48 h), CAKI-1; conditions: CAKI-1, renal
Description: as §1

786-0 = assay: NCI cytotoxicity (SRB, 48 h), 786-0; conditions: 786-0, renal
Description: as §1

RPMI-8226 = assay: NCI cytotoxicity (SRB, 48 h), RPMI-8226; conditions: RPMI-8226, leukemia
Description: as §1

OVCAR-5 = assay: NCI cytotoxicity (SRB, 48 h), OVCAR-5; conditions: OVCAR-5, ovarian
Description: as §1

SK-OV-3 = assay: NCI cytotoxicity (SRB, 48 h), SK-OV-3; conditions: SK-OV-3, ovarian
Description: as §1

`COc1cc2c(cc1OCCCCCOc1ccc(-n3c(C)nc4ccccc4c3=O)cc1)N=C[C@@H]1CCCN1C2=O` [5d, 7-methoxy-8-{5-[4-(2-methyl-4-oxo-3,4-dihydro-3-quinazolinyl)phenoxy]pentyloxy-}-(11aS)-1,2,3,11a-tetrahydro-5H-pyrrolo[2,1-c][1,4]benzodiazepine-5-one] was tested, and the GI50 (SNB-19) was 280 nM, the GI50 (K-562) was 60 nM and the GI50 (LOX IMVI) was 150 nM. It also gave a GI50 (EKVX) of 870 nM, a GI50 (PC-3) of 290 nM and a GI50 (UO-31) of 360 nM. The GI50 (HCT-15) was 1090 nM, the GI50 (ACHN) was 290 nM and the GI50 (RXF 393) was 210 nM. For the same molecule, the GI50 (SR) was 110 nM, the GI50 (TK-10) was 310 nM and the “Log10 GI50” value (Melanoma cell lines) was −6.65 mol/L. The “Log10 LC50” value (Melanoma cell lines) was −5.90, the GI50 (HL-60(TB)) was 180 nM and the GI50 (NCI/ADR-RES) was 1730 nM. The “Log10 GI50” value (Renal cancer cell lines) was −6.62 mol/L, the “Log10 LC50” value (Renal cancer cell lines) was −5.09 and the GI50 (SNB-75) was 380 nM. The “Log10 GI50” value (CNS cancer cell lines) was −6.59 mol/L, the “Log10 LC50” value (CNS cancer cell lines) was −4.88 and the GI50 (OVCAR-3) was 200 nM. For the same molecule, the GI50 (OVCAR-4) was 370 nM, the GI50 (CAKI-1) was 190 nM and the GI50 (786-0) was 170 nM. For the same molecule, the GI50 (RPMI-8226) was 190 nM, the GI50 (OVCAR-5) was 330 nM and the GI50 (SK-OV-3) was 430 nM.
